Measurements published in US20160326558A1, “Process for Stimulating Hyaluronic Acid Production with Ascorbic Acid Derivatives and the Composition Thereof” (CORUM INC., priority 2012, published 2016).
Where “and” joins values, the source holds several entries; their conditions need not be identical. Identical values can stand only once. Entries after “also recorded” stand apart in the source; their conditions may differ.

What was measured:
Format in all cases: cell-based
[1] = tested on: human fibroblast (Hs68); test: Stimulating hyaluronic acid production in human fibroblast, R&D HA-ELISA (Example 4); details: for Hyaluronic Acid Content Stimulated, Average / Hyaluronic Acid Content Stimulated, single entries: 72 h, vs negative control = 100%
Description: (§1) Complete medium is used in cell seeding stage. The confluent Hs68 cells are rinsed with sterile D-PBS, and trypsinize all cells and perform cell counting. Then, dilute the cell density to 4E+04/mL and seed 0.5 mL cell liquid (equals to 2E+04 cells) each well in 24 well plates. Incubate Hs68 cells at 37° C., 5% CO2 for about 24 hours. Starvation medium is used in this stage. The 24-hour-cultured Hs68 cells are rinsed with sterile D-PBS and discarded rinse buffer. Controls and testing materials in different concentrations are respectively added into the Hs68 cells in 24 well plates. Then, the Hs68 cells are incubated at 37° C., with 5% CO2 for about 72 hours. After incubating for about 72 hours, transfer some supernatant of cells treating with controls and testing materials into new containers. Centrifuge the supernatants at 2000 rpm for 5˜10 minutes. The hyaluronic acid content of the centrifuged supernatants are respectively determined by Hyaluronan Enzyme-Linked Immunosorbent Assay Kit, and calculated with the following Formula 2. [formula] In this example, we try another brand HA-ELISA kit (R&D; Cat No. DHYAL0) to study the reproducibility of the stimulatory effect. Excluding replacing the HA-ELISA kit, the materials and the procedures can be referred to the above Example 2.

[2] = tested on: mouse fibroblast (3T3); test: Stimulating hyaluronic acid production in mouse fibroblast, R&D HA-ELISA (Examples 3 and 5); details: for Hyaluronic Acid Content Stimulated, Average / Hyaluronic Acid Content Stimulated, single entries: 72 h, vs negative control = 100%
Description: Complete medium is used in cell seeding stage. The confluent 3T3 cells are rinsed with sterile D-PBS, and trypsinize all cells and perform cell counting. Then, dilute the cell density to 4E+04/mL and seed 0.5 mL cell liquid (equals to 2E+04 cells) each well in 24 well plates. Incubate 3T3 cells at 37° C., 5% CO2 for about 24 hours. Starvation medium is used in this stage. The 24-hour-cultured 3T3 cells are rinsed with sterile D-PBS and discarded rinse buffer. Controls and testing materials in different concentrations are respectively added into the 3T3 cells in 24 well plates. Then, the 3T3 cells are incubated at 37° C., with 5% CO2 for about 72 hours. After incubating for about 72 hours, transfer some supernatant of cells treated with controls and testing materials into new containers. Centrifuge the supernatants at 2000 rpm for 5˜10 minutes. The hyaluronic acid content of the centrifuged supernatants are respectively determined by Hyaluronan Enzyme-Linked Immunosorbent Assay Kit, and calculated with the following Formula 1. [formula] In this example, we try another brand HA-ELISA kit (R&D; Cat No. DHYAL0) to figure out the reproducibility of the stimulatory effect. Excluding replacing the HA-ELISA kit, the materials and the procedures can be referred to the above Example 1. In this example, we try to figure out whether the stimulatory effect also can be found on ascorbic acid. Excluding replacing the HA-ELISA kit to another brand HA-ELISA kit (R&D; Cat No. DHYAL0) and replacing the testing material to ascorbic acid, the other materials and the procedures can be referred to the above Example 1.

[3] = tested on: mouse fibroblast (3T3); test: Cell viability of mouse fibroblast (Example 1); details: concentration larger than 7500 ppm
[4] = tested on: mouse fibroblast (3T3); test: Hyaluronic acid content stimulated by 3-O-ethyl ascorbic acid and AA2G in mouse fibroblast (Table 6); details: for Hyaluronic Acid Content Stimulated, Average / Hyaluronic Acid Content Stimulated, single entries: vs negative control = 100%
[5] = tested on: human fibroblast (Hs68); test: Cell viability of human fibroblast (Example 2); details: 10000 ppm
[6] = tested on: human fibroblast (Hs68); test: Stimulating hyaluronic acid production in human fibroblast, Echelon HA-ELISA (Example 2); details: for Hyaluronic Acid Content Stimulated, Average / Hyaluronic Acid Content Stimulated, single entries: 72 h, vs negative control = 100%
Description: as §1, with “Cell Line: Hs68 (BCRC 60038, purchased from Bioresource Collection and Research Center) Complete Medium (as positive control): DMEM medium with 10% Fetal Bovine Serum (DMEM purchased from Corning Incorporated and Caisson Labs; FBS purchased from Caisson Labs) Starvation Medium (as negative control): DMEM medium with 0.1% Fetal Bovine Serum (DMEM purchased from Corning Incorporated and Caisson Labs; FBS purchased from Caisson Labs) Hyaluronan Enzyme-Linked Immunosorbent Assay Kit (HA-ELISA) (Brand: Echelon/Cat No K-1200) Complete” for “Complete”, “[formula]” for “[formula] In this example, we try another brand HA-ELISA kit (R&D; Cat No. DHYAL0) to study the reproducibility of the stimulatory effect. Excluding replacing the HA-ELISA kit, the materials and the procedures can be referred to the above Example 2.”

[7] = tested on: mouse fibroblast (3T3); test: Stimulating hyaluronic acid production in mouse fibroblast, Echelon HA-ELISA (Example 1)
Description: as §1, with “Cell Line: 3T3 (BCRC 60071, purchased from Bioresource Collection and Research Center) Complete Medium (as positive control): DMEM medium with 10% Fetal Bovine Serum (DMEM purchased from Corning Incorporated and Caisson Labs; FBS purchased from Caisson Labs) Starvation Medium (as negative control): DMEM medium with 0.1% Bovine Serum (DMEM purchased from Corning Incorporated and Caisson Labs; FBS purchased from Caisson Labs) Hyaluronan Enzyme-Linked Immunosorbent Assay Kit (HA-ELISA) (Brand: Echelon/Cat No K-1200) Complete” for “Complete”, “3T3” for “Hs68”, “treated” for “treating”, “1.” for “2.”, “[formula]” for “[formula] In this example, we try another brand HA-ELISA kit (R&D; Cat No. DHYAL0) to study the reproducibility of the stimulatory effect. Excluding replacing the HA-ELISA kit, the materials and the procedures can be referred to the above Example 2.”

[8] = 5000 ppm, 72 h, vs negative control = 100%

## CCOC1=C(O)C(=O)O[C@@H]1[C@@H](O)CO [3-O-ethyl-ascorbic acid]
[1]; 1.25 ppm
  Hyaluronic Acid Content Stimulated, Average: 112.6%
  Hyaluronic Acid Content Stimulated, single entries: 102.1% and 126.8% and 102.4% and 119.0%
[1]; 2.5 ppm
  Hyaluronic Acid Content Stimulated, Average: 136.7%
  Hyaluronic Acid Content Stimulated, single entries: 149.7% and 125.3% and 111.4% and 160.5%
[1]; 5 ppm
  Hyaluronic Acid Content Stimulated, Average: 123.1%
  Hyaluronic Acid Content Stimulated, single entries: 110.6% and 110.9% and 103.8% and 167.0%
[1]; 7.5 ppm
  Hyaluronic Acid Content Stimulated, Average: 134.0%
[1]; 10 ppm
  Hyaluronic Acid Content Stimulated, Average: 97.7%
  Hyaluronic Acid Content Stimulated, single entries: 89.1% and 101.2% and 91.2% and 109.5%
[1]; 100 ppm
  Hyaluronic Acid Content Stimulated, Average: 121.9%
[1]; 1000 ppm
  Hyaluronic Acid Content Stimulated, Average: 133.9%
  Hyaluronic Acid Content Stimulated, single entries: 125.4% and 134.8% and 122.6% and 152.7%
[1]; 2500 ppm
  Hyaluronic Acid Content Stimulated, Average: 103.6%
  Hyaluronic Acid Content Stimulated, single entries: 99.2% and 96.7% and 78.7% and 140.0%
[1]; 5000 ppm
  Hyaluronic Acid Content Stimulated, Average: 91.0%
  Hyaluronic Acid Content Stimulated, single entries: 110.0% and 70.6% and 103.2% and 80.3%
[1]; 7500 ppm
  Hyaluronic Acid Content Stimulated, Average: 73.1%
[1]; 10000 ppm
  Hyaluronic Acid Content Stimulated, Average: 40.7%
  Hyaluronic Acid Content Stimulated, single entries: 50.9% and 32.1% and 37.2% and 42.4%
[1]; about 1000-10 ppm
  stimulated hyaluronic acid production, dose dependence (in words): dose-dependently
[2]; 1.25 ppm
  Hyaluronic Acid Content Stimulated, Average: 143.0%
  Hyaluronic Acid Content Stimulated, single entries: 100.0% and 156.8% and 172.0%
[2]; 2.5 ppm
  Hyaluronic Acid Content Stimulated, Average: 145.9%
  Hyaluronic Acid Content Stimulated, single entries: 119.7% and 135.2% and 182.8%
[2]; 5 ppm
  Hyaluronic Acid Content Stimulated, Average: 137.1%
[2]; 7.5 ppm
  Hyaluronic Acid Content Stimulated, Average: 135.9%
  Hyaluronic Acid Content Stimulated, single entries: 115.9% and 143.8% and 148.1%
[2]; 10 ppm, Table 3
  Hyaluronic Acid Content Stimulated, Average: 147.1%
  Hyaluronic Acid Content Stimulated, single entries: 101.0% and 158.1% and 182.2%
[2]; 100 ppm, Table 3
  Hyaluronic Acid Content Stimulated, Average: 171.2%
  Hyaluronic Acid Content Stimulated, single entries: 166.8% and 155.7% and 191.2%
[2]; 1000 ppm
  Hyaluronic Acid Content Stimulated, Average: 177.8%
[2]; 2500 ppm
  Hyaluronic Acid Content Stimulated, Average: 159.3%
  Hyaluronic Acid Content Stimulated, single entries: 148.7% and 176.3% and 152.8%
[2]; 5000-5 ppm
  stimulated hyaluronic acid production, dose dependence (in words): dose-dependently
[2]; 5000 ppm
  Hyaluronic Acid Content Stimulated, Average: 184.2%
  Hyaluronic Acid Content Stimulated, single entries: 131.8% and 180.4%
[2]; 7500 ppm
  Hyaluronic Acid Content Stimulated, Average: 143.8%
  Hyaluronic Acid Content Stimulated, single entries: 119.9% and 130.8% and 180.7%
[2]; 10000 ppm
  Hyaluronic Acid Content Stimulated, Average: 109.0%
[3]
  cell viability: inhibited
[4]; 10 ppm
  Hyaluronic Acid Content Stimulated, Average: 122%
  Hyaluronic Acid Content Stimulated, single entries: 125% and 122% and 118%
[4]; 100 ppm
  Hyaluronic Acid Content Stimulated, Average: 138%
  Hyaluronic Acid Content Stimulated, single entries: 115% and 161% and 138%
[4]; 1000 ppm
  Hyaluronic Acid Content Stimulated, Average: 171%
  Hyaluronic Acid Content Stimulated, single entries: 180% and 165% and 168%
[4]; Table 6, 10-1000 ppm
  stimulatory of producing hyaluronic acid (in words): helpful to the stimulatory of producing hyaluronic acid
[5]
  cell viability: inhibited
[6]; 10 ppm
  Hyaluronic Acid Content Stimulated, Average: 107.2%
  Hyaluronic Acid Content Stimulated, single entries: 92.7% and 123.3% and 105.7%
[6]; 100 ppm
  Hyaluronic Acid Content Stimulated, Average: 148.8%
  Hyaluronic Acid Content Stimulated, single entries: 200.9% and 130.3% and 115.1%
[6]; 1000-10 ppm
  stimulated hyaluronic acid production, dose dependence (in words): dose-dependently
[6]; 1000 ppm
  Hyaluronic Acid Content Stimulated, Average: 182.7%
  Hyaluronic Acid Content Stimulated, single entries: 170.1% and 172.6%
[6]; 10000 ppm
  Hyaluronic Acid Content Stimulated, Average: 32.5%
[7]; 10-5000 ppm
  stimulated hyaluronic acid production (in words): efficiently increased
[7]; 10 ppm, 72 h, vs negative control = 100%
  Hyaluronic Acid Content Stimulated, Average: 164.6%
[7]; 100 ppm, 72 h, vs negative control = 100%
  Hyaluronic Acid Content Stimulated, Average: 133.1%
[7]; 1000 ppm, 72 h, vs negative control = 100%
  Hyaluronic Acid Content Stimulated, Average: 148.9%
[7]; 2500 ppm, 72 h, vs negative control = 100%
  Hyaluronic Acid Content Stimulated, Average: 165.0%
[7]; [8]
  Hyaluronic Acid Content Stimulated, Average: 149.0%
  Hyaluronic Acid Content Stimulated, single entries: 110.3% and 214.1% and 161.9% and 109.6%
[7]; 7500 ppm, 72 h, vs negative control = 100%
  Hyaluronic Acid Content Stimulated, Average: 91.0%
[7]; 10000 ppm, 72 h, vs negative control = 100%
  Hyaluronic Acid Content Stimulated, Average: 89.4%

## O=C1O[C@H]([C@@H](O)CO)C(O)=C1O [Ascorbic Acid, ascorbic acid]
[2]; 2-100 ppm, comparing to the negative control
  stimulation of hyaluronic acid production (in words): can NOT stimulate hyaluronic acid production; also recorded: cannot be helpful
[2]; 2 ppm, Table 5
  Hyaluronic Acid Content Stimulated, Average: 94%
  Hyaluronic Acid Content Stimulated, single entries: 99% and 64% and 119%
[2]; 10 ppm, Table 5
  Hyaluronic Acid Content Stimulated, Average: 101%
  Hyaluronic Acid Content Stimulated, single entries: 93% and 108% and 101%
[2]; 50 ppm, Table 5
  Hyaluronic Acid Content Stimulated, Average: 102%
  Hyaluronic Acid Content Stimulated, single entries: 105% and 100% and 102%
[2]; 100 ppm, Table 5
  Hyaluronic Acid Content Stimulated, Average: 91%
  Hyaluronic Acid Content Stimulated, single entries: 87% and 93% and 94%
